Source: patent US10865387B2, “Methods of obtaining pancreatic endocrine cells” (The University Court of the University of Aberdeen, priority 2014, dated 2020)

How the values were obtained:
[1] = tested on: human exocrine enriched fraction (EEF); experiment: RT-qPCR of hormone and transcription factor mRNA in reprogrammed exocrine cells; type: cell-based
Description: After 48 h the cells were incubated for another 72 h in serum free medium (SFM) prepared with RPMI 1640, insulin-transferrin-selenium (Gibco) and 1% bovine serum albumin (Sigma), supplemented with 10 μM SB431542, 2 μM Y27632, 1 μM 5-Aza-2′deoxycytidine and 10 mM sodium butyrate (all from Sigma). On the next day the cells were incubated for 4 h with the adenoviruses encoding pancreatic transcription factors. On the following day the medium was changed for SFM supplemented with 1 nM betacellulin (R&D systems, Abingdon, UK), 10 nM exendin-4 and 10 mM nicotinamide (both from Sigma). The medium was changed every two days for another 6 days before harvesting.
Recombinant adenoviruses encoding the mouse sequences of PDX1, MAFA, NGN3 and PAX4 (Swales et al., 2012) were prepared using the Ad-Easy™ system (Agilent Technologies, Edinburgh, UK). The adenoviruses containing PDX1 and NGN3 also expressed GFP through a downstream CMV promoter. Viral transduction was performed in SFM for 4 h at a multiplicity of infection (MOI) of 100 for each virus.
QRT/PCR was performed as previously described (Lima et al., 2012. Data were analysed using the 2^−ΔΔCT method. Statistical analysis was performed using PRISM software and the student's t-test or one-way ANOVA followed by the Dunnet's post-hoc test, as appropriate. The list of TaqMan probes are listed in Table 1:
Knockdown of Arx in transdifferentiating cells was performed by transfection with a pool of specific targeting small inhibitory RNAs, or scrambled controls (Dharmacon, Loughborough, UK). 100 nM siRNA was transfected on day 6 of the transdifferentiation protocol using Dharmafect 1 (Dharmacon), according to the manufacturer's instructions.
EEF cells were plated directly from the low purity fractions obtained following islet isolation. EEF cells were cultured as a monolayer for two days and then treated with SB, Y2, Aza and NaBu for 3 days. […]

[2] = tested on: human exocrine enriched fraction (EEF); experiment: Insulin, C-peptide and glucagon content of cell lysates by ELISA; type: cell-based; settings: reprogrammed (siARX) cells with ZnCl2 10 μM; FIG. 15
Excerpt: FIG. 10. ARX inhibition enhances beta cell maturation and decreases alpha cell differentiation. (A) C-peptide release by untreated (N/A), transdifferentiated cells in the absence of siARX (REP), siARX transdifferentiated cells (siARX) and in the absence of PAX4 (siARX-PAX4). C-peptide was detected from the culture medium by a specific human C-peptide ELISA. Data are representative of triplicate experiments. (B) Insulin, C-peptide and Proinsulin content of untreated, transdifferentiated cells in the absence of siARX (REP), siARX transdifferentiated cells (siARX) and human islets. The content of each peptide was detected by specific human ELISAs after cell lysis and normalised to the total protein content. Data are representative of triplicate experiments. (C) Glucagon content of untreated, transdifferentiated cells in the absence of siARX (REP), siARX transdifferentiated cells (siARX) and human islets. Glucagon was detected by a specific human ELISA after cell lysis and normalised to the total protein content. Data are representative of triplicate experiments. […]
[…] were measured using a human glucagon Quantikine ELISA kit (R&D Systems, Abingdon, UK), a human C-peptide ELISA kit (Millipore, Livingston, UK), a human prosinsulin ELISA kit or a human insulin ELISA kit (both from Mercodia, Uppsala, Sweden). […]

[3] = cells reprogrammed (siARX) with ZnCl2 10 μM, FIG. 14

Row | Compound | insulin gene expression [1, 3] | mRNA encoding PAX4 [1, 3] | insulin (C-peptide) protein content [2] | efficiency of reprogramming (relative expression of insulin) on extracellular matrix ([1]; PDX1/MAFA/NGN3/PAX4 protocol, compared with fibronectin, poly-lysine, collagen type I and IV, FIG. 4)
1 | [Cl-].[Cl-].[Zn+2] [ZnCl2] | significant effect | increased levels | stimulatory effect | –
2 | laminin | – | – | – | improves the efficiency of reprogramming
